# Measurements as given in US20250282895A1, “PHARMACEUTICAL COMPOSITIONS OF CHEMOTHERAPEUTIC AGENTS BASED ON BETA-S[…]-AMINO ACID DERIVATIVES” (priority 2021, published 2025).
# Experiments:
# Format in all cases: physicochemical
# [1] = Comparative stability, Formulation 4 (based on Treanda, mannitol); conditions: pH 4-5 (bendamustine), pH 4 (Compound (1c)•HCl)
# Procedure: (§1) The stability of Compound (1c) either as the HCl salt or as the free base was compared to the stability of melphalan HCl and/or bendamustine HCl in various pharmaceutical formulations and at different concentrations and at temperatures of 0° C. or 25° C.
# (§2) The stability of the compounds in the pharmaceutical formulations was determined at concentrations within the range from 0.4 mg/mL to 0.5 mg/mL, from 0.9 mg/mL to 1.1 mg/mL, and from 1.8 mg/mL to 2.1 mg/mL.
# (§3) The amount of the active pharmaceutical ingredient (API) (Compound (1c), melphalan or bendamustine) in the pharmaceutical formulations at different times during storage was determined using HPLC/UV as described in detail for Example 4 and Example 5.
# Treanda® is an injectable formulation of bendamustine hydrochloride, 1H-benzimidazole-2-butanoic acid, 5-[bis(2-chloroethyl)amino]-1-methyl-, 4-(5-(bis(2-chloroethyl)amino)-1-methyl-1H-benzo[d]imidazol-2-yl) butanoic acid monohydrochloride approved by the FDA. Treanda® for injection is provided in a vial containing either 25 or 100 mg of bendamustine HCl as a white to off-white lyophilized powder. Each vial contains either 25 mg or 100 mg of bendamustine hydrochloride and 42.5 mg or 170 mg of mannitol, USP, which is reconstituted in either 0.9% sodium chloride injection, USP, or 2.5% dextrose/0.45% sodium chloride solution injection, USP to a final concentration of 0.2 mg/mL-0.6 mg/mL and adjusted to a pH from 2.5 to 3.5.
# A series of 12 mL glass vials each containing 12.5 mg (0.0317 mmol) of bendamustine mono-hydrochloride salt (C16H21C12N3O2·HCl, 394.72 g/mol; MedKoo, 200470) (corresponding to 11.3 mg of bendamustine as the free base) were prepared through weighing out the commercial compound into the vials. To each of the vials either containing bendamustine mono-hydrochloride salt was added 21.3 mg (0.117 mmol) of D-mannitol (C6H14O6, MW 182.17 g/mol; SigmaAldrich, M1902). The mixtures were dissolved in 2.0 mL of double distilled water (dd-H2O) (Arrowhead), the clear colorless solutions were frozen at −78° C. (dry ice/acetone bath), and the solvents were lyophilized off at about 100 mTorr within about 16 h to afford colorless solids.
# A stock solution was prepared by dissolving 85.0 mg (0.255 mmol) of Compound (1c) (free base) and 170.4 mg of D-mannitol (0.935 mmol) (C6H14O6, MW 182.17 g/mol; SigmaAldrich, M1902), and 0.503 mL of 0.5072 M aq. HCl (0.255 mmol, 1.0 eq.) (Fluka, 318957) in about 16.0 mL of a mixture of acetonitrile/water (1:1, v/v) with vortexing in clean graduated glass cylinder (25 mL) to afford a stock solution of Compound (1c) as a mono-HCl salt of a concentration of 5.313 mg/mL and a D-mannitol concentration of 10.65 mg/mL. This solution was filtered through a 0.22 μm PTFE syringe filter into a clean 25 mL Erlenmeyer flask. Aliquots of 2.0 mL (2× 1.0 mL; 2× 5.313 mg) of this stock solution were rapidly pipetted into clean 12 mL scintillation vials. The aliquots were frozen at −78° C. (dry ice/acetone bath) and lyophilized at about 100 mTorr for about 16 hours to provide test vials each containing 11.8 mg (0.0319 mmol) of Compound (1c) mono-hydrochloride salt (mono-HCl salt) (corresponding to 10.6 mg of Compound (1c) as a free base) and 21.3 mg (0.117 mmol) of D-mannitol as a colorless powdery solid.
# The materials in the vials were dissolved 2.5 mL of double-distilled water (dd-H2O) (Arrowhead) to provide clear colorless, non-viscous stock solutions of a concentration of 4.24 mg/mL of Compound (1c) as the monohydrochloride salt or 4.54 mg/mL of bendamustine as the mono-hydrochloride salt, respectively.
# 1.0 mL of the stock solution containing 4.24 mg/mL of Compound (1c) as the monohydrochloride salt was diluted with 9.0 mL of 0.9% saline to afford 10.0 mL of a test solution of a concentration of 0.424 mg/mL of Compound (1c) as the monohydrochloride salt and with a pH of about 4. […]
# [2] = Stability of Compound (1c) free base in PBS buffer (LC/MS/MS); conditions: PBS buffer pH 7.4, 37° C., 1 μM
# Procedure: A stability assay was carried out in 96-well microtiter plates. (S)-3-Amino-4-(5-(bis(2-chloroethyl)amino)-2-methylphenyl) butanoic acid (Compound (1c) free base) was incubated at 37° C. in phosphate buffered saline (PBS buffer), pH 7.4. The reaction mixtures (30 μL) contained a final concentration of 1 μM of Compound (1c). The percent Compound (1c) remaining in the mixture was determined using LC/MS/MS.
# At each of the sampling time points, 300 μL of quench solution (50 vol-% acetonitrile, 50 vol-% methanol containing 1.3% (v/v) of 6N HCl) with internal standards (bucetin for positive ESI mode; warfarin for negative ESI mode) was transferred to each well. Plates were sealed and centrifuged at 4° C. for 15 min at 4,000 rpm. The supernatant was transferred to new plates for LC/MS/MS analysis.
# All samples were analyzed on LC/MS/MS using an AB Sciex API 4000® instrument, coupled to a Shimadzu LC-20AD LC Pump system. Analytical samples were separated using a Waters Atlantis T3 dC18 reverse phase HPLC column (20 mm×2.1 mm) at a flow rate of 0.4 mL/min. The mobile phases consisted of 0.1% formic acid in water (solvent A) and 0.1% formic acid in 100% acetonitrile (solvent B).
# [3] = Comparative stability, Formulation 3 (based on Evomela, SBE6.5-β-CD); conditions: Formulation 3, 25° C., 0.4-0.5 mg/mL, pH 5.8-6.1 (melphalan), pH 5-6 (Compound (1c)•HCl)
# Procedure: as §1, §2, §3
# Evomela® is an injectable formulation of melphalan hydrochloride, 4-[bis(2-chloroethyl)amino]-L-phenylalanine hydrochloride, approved by the FDA. Evomela® is supplied as a sterile white to off-white lyophilized powder in a single-dose vial for intravenous use. Each vial containing 50 mg melphalan free base equivalent to 56 mg melphalan hydrochloride and 2,700 mg betadex sulfobutyl ether (SBE6.5-β-CD; sulfobutyl ether β-cyclodextrin sodium) sodium, NF. Normal saline solution (0.9% Sodium Chloride Injection, USP) (8.6 mL as directed) is used to reconstitute Evomela® to a total of 10 mL having a 5 mg/mL nominal concentration of melphalan. The required volume of Evomela® needed for a patient dose is withdrawn from the vial(s) and added to the appropriate volume of 0.9% Sodium Chloride Injection, USP, to a final nominal concentration of 0.45 mg/mL of melphalan. This solution is then infused via an injection port or central venous catheter.
# A series of 12 mL glass vials each containing 5.5 mg (0.0165 mmol of Compound (1c) free base and 270 mg of SBE6.5-β-CD, Captisol®) were prepared as described in Example 4.
# The cyclodextrin derivative/Compound (1c) free base guest-host inclusion complex was reconstituted by dissolving the guest-host inclusion complex in 0.86 mL of 0.9% saline to provide 1.0 mL of a solution having a nominal concentration of 5.5 mg/mL of Compound (1c) free base.
# A 1.0 mL aliquot of this solution was diluted with 10.0 mL of 0.9% saline, and the pH adjusted with 5 μL of a saturated aqueous NaHCO3 solution to provide 11.0 mL of a clear, colorless solution having a nominal concentration of 0.50 mg/mL of Compound (1c) from Compound (1c) free base and a pH from 5.8 to 6.1.
# A 1.0 mL aliquot of this solution was diluted with 4.5 mL of 0.9% saline, and the pH adjusted with 5 μL of a saturated aqueous NaHCO3 solution to provide 5.5 mL of a clear, colorless solution having a nominal concentration of 1.0 mg/mL of Compound (1c) from Compound (1c) free base and a pH of about 6.1.
# A 1.0 mL aliquot of this solution was diluted with 1.75 mL of 0.9% saline, and the pH adjusted with 5 μL of a saturated aqueous NaHCO3 solution to provide 2.75 mL of a clear, colorless solution having a nominal concentration of 2.0 mg/mL of Compound (1c) from Compound (1c) free base and a pH of about 6.1.
# A series of 12 mL glass vials each containing 6.1 mg (0.0165 mmol of Compound (1c) mono-hydrochloride salt (corresponding to 5.5 mg of Compound (1c) free base) and 270 mg of SBE6.5-β-CD, Captisol®) were prepared as described in Example 5.
# The cyclodextrin derivative/Compound (1c) mono-HCl salt guest-host inclusion complex was reconstituted by dissolving the guest-host inclusion complex in 0.86 mL of 0.9% saline to provide 1.0 mL of a solution having a nominal concentration of 6.1 mg/mL of Compound (1c) mono-HCl salt (corresponding to a nominal concentration of 5.5 mg/mL of the Compound (1c) free base).
# A 0.5 mL aliquot of this solution was diluted with 5.0 mL of 0.9% saline, and the pH adjusted with 5 μL of a saturated aqueous NaHCO3 solution to provide 5.5 mL of a clear, colorless solution having a nominal concentration of 0.50 mg/mL of Compound (1c) from Compound (1c) mono-hydrochloride and a pH from 5.3 to 5.5. […]
smiles,measurement,setting,value
"Cl.Cn1c(CCCC(=O)O)nc2cc(N(CCCl)CCCl)ccc21 [Bendamustine•HCl, 4-(5-(bis(2-chloroethyl)amino)-1-methyl-1H-benzo[d]imidazol-2-yl) butanoic acid monohydrochloride, reference compound]",% API,"[1]; Formulation 4, 0° C., 0.5 hours, 0.4-0.5 mg/mL",98%
same,% API,"[1]; Formulation 4, 0° C., 2.0 hours, 0.4-0.5 mg/mL",95%
same,% API,"[1]; Formulation 4, 25° C., 0.5 hours, 0.4-0.5 mg/mL",98%
same,% API,"[1]; Formulation 4, 25° C., 0.5 hours, 0.9-1.1 mg/mL",97%
same,% API,"[1]; Formulation 4, 25° C., 0.5 hours, 1.8-2.1 mg/mL",95%
same,% API,"[1]; Formulation 4, 25° C., 2.0 hours, 0.4-0.5 mg/mL",91%
same,% API,"[1]; Formulation 4, 25° C., 2.0 hours, 0.9-1.1 mg/mL",95%
same,% API,"[1]; Formulation 4, 25° C., 2.0 hours, 1.8-2.1 mg/mL",89%
"Cc1ccc(N(CCCl)CCCl)cc1C[C@H](N)CC(=O)O [Compound (1c), (S)-3-amino-4-(5-(bis(2-chloroethyl)amino)-2-methylphenyl) butanoic acid]",Compound (1c) Remaining (%),[2]; 0 min,100%
same,Compound (1c) Remaining (%),[2]; 15 min,78%
same,Compound (1c) Remaining (%),[2]; 30 min,68%
same,Compound (1c) Remaining (%),[2]; 60 min,56%
same,Compound (1c) Remaining (%),[2]; 120 min,30%
same,Compound (1c) Remaining (%),[2]; 240 min,10%
"N[C@@H](Cc1ccc(N(CCCl)CCCl)cc1)C(=O)O [Melphalan free base, melphalan, reference compound]",% API,[3]; 0.5 hours,97%
same,% API,[3]; 2.0 hours,84%
